Measurements from the NIST ThermoML archive (doi:10.1016/j.fluid.2006.01.008).

Tests used:
[1] = refractive index (Na D-line) (dimensionless); xn = mol fraction of the nth substance listed; details: 298.15 K, 101 kPa, Liquid, Standard Abbe refractometry
[2] = xn = mol fraction of the nth substance listed; details: 298.15 K, 101 kPa, Liquid; for viscosity: Capillary tube (Ostwald / Ubbelohde) method; for speed of sound: Sing-around technique in a fixed-path interferometer; for mass density: Vibrating tube method
[3] = refractive index (Na D-line) (dimensionless); details: 298.15 K; 101.33 kPa; Liquid; Standard Abbe refractometry
[4] = 298.15 K, 101.33 kPa, Liquid; for viscosity: Capillary tube (Ostwald / Ubbelohde) method; for speed of sound: Sing-around technique in a fixed-path interferometer; for mass density: Vibrating tube method

CCCCCCCC[n+]1ccn(C)c1.F[B-](F)(F)F [1-methyl-3-octylimidazolium tetrafluoroborate] + CC(C)O
Details | mass density, [2] [kg/m3] | refractive index, [1] | speed of sound, [2] [m/s] | viscosity, [2] [mPa·s]
x1 = 0.0459 | 826.83 | 1.38385 | 1170 | 2.956
x1 = 0.0892 | 862.39 | 1.39059 | 1198 | 3.955
x1 = 0.182 | 921.09 | 1.40147 | 1254 | 7.053
x1 = 0.2506 | 953.75 | 1.40743 | 1291 | 10.15
x1 = 0.2965 | 972 | 1.41077 | 1312 | 12.88
x1 = 0.3677 | 996.08 | 1.41503 | 1343 | 18.27
x1 = 0.4214 | 1011.52 | 1.41781 | 1362 | 23.79
x1 = 0.4798 | 1026.24 | 1.42048 | 1381 | 31.66
x1 = 0.5028 | 1031.53 | 1.42134 | 1387 | 35.48
x1 = 0.6166 | 1054.39 | 1.42547 | 1416 | 61.95
x1 = 0.7089 | 1069.7 | 1.42817 | 1437 | 96.3
x1 = 0.7558 | 1076.59 | 1.42938 | 1446 | 120.5
x1 = 0.8697 | 1091.33 | 1.43182 | 1467 | 202.6

CCCCCCCC[n+]1ccn(C)c1.F[B-](F)(F)F [1-methyl-3-octylimidazolium tetrafluoroborate] + CCO
Details | mass density, [2] [kg/m3] | refractive index, [1] | speed of sound, [2] [m/s] | viscosity, [2] [mPa·s]
x1 = 0.0517 | 849.43 | 1.37489 | 1195 | 1.74
x1 = 0.0818 | 878.24 | 1.38179 | 1218 | 2.25
x1 = 0.1822 | 946.85 | 1.39805 | 1287 | 4.722
x1 = 0.2779 | 988.78 | 1.40778 | 1336 | 8.542
x1 = 0.378 | 1019.53 | 1.41488 | 1376 | 14.99
x1 = 0.46 | 1038.64 | 1.41926 | 1398 | 23.42
x1 = 0.5474 | 1054.97 | 1.42304 | 1419 | 37.38
x1 = 0.5537 | 1056.01 | 1.42326 | 1420 | 38.62
x1 = 0.5636 | 1057.63 | 1.42362 | 1422 | 40.81
x1 = 0.6203 | 1066.22 | 1.4256 | 1434 | 54.88
x1 = 0.662 | 1071.9 | 1.42683 | 1441 | 67.91
x1 = 0.7749 | 1085.35 | 1.42973 | 1459 | 120.4
x1 = 0.9286 | 1099.7 | 1.43293 | 1481 | 251.9

CCCCCCCC[n+]1ccn(C)c1.F[B-](F)(F)F [1-methyl-3-octylimidazolium tetrafluoroborate] + CO
Details | mass density, [2] [kg/m3] | refractive index, [1] | speed of sound, [2] [m/s] | viscosity, [2] [mPa·s]
x1 = 0.0495 | 869.02 | 1.35534 | 1188 | 0.981
x1 = 0.0979 | 921.23 | 1.3733 | 1243 | 1.622
x1 = 0.1997 | 986.4 | 1.39501 | 1323 | 3.85
x1 = 0.2859 | 1018.55 | 1.40551 | 1366 | 7.131
x1 = 0.3648 | 1038.89 | 1.41222 | 1394 | 11.81
x1 = 0.4461 | 1054.52 | 1.41738 | 1416 | 18.9
x1 = 0.4922 | 1061.78 | 1.41982 | 1426 | 24.16
x1 = 0.5121 | 1064.62 | 1.42076 | 1430 | 27.22
x1 = 0.5709 | 1072.21 | 1.42339 | 1440 | 38.28
x1 = 0.5972 | 1075.25 | 1.42443 | 1445 | 44.63
x1 = 0.6485 | 1080.67 | 1.42629 | 1452 | 57.72
x1 = 0.785 | 1092.37 | 1.43029 | 1469 | 123.9
x1 = 0.9049 | 1100.21 | 1.43284 | 1482 | 228.6

CCO [ethanol]
Details | mass density [kg/m3] | refractive index | speed of sound [m/s] | viscosity [mPa·s]
[3] | – | 1.3592 | – | –
[4] | 785.22 | – | 1144 | 1.077

CCCO [propan-1-ol]
Details | mass density [kg/m3] | refractive index | speed of sound [m/s] | viscosity [mPa·s]
[3] | – | 1.38306 | – | –
[4] | 799.47 | – | 1207 | 1.928

CCCCCCCC[n+]1ccn(C)c1.F[B-](F)(F)F [1-methyl-3-octylimidazolium tetrafluoroborate]
Details | mass density [kg/m3] | refractive index | speed of sound [m/s] | viscosity [mPa·s]
[3] | – | 1.43422 | – | –
[4] | 1105.3 | – | 1491 | 359.9

CC(C)O [propan-2-ol]
Details | mass density [kg/m3] | refractive index | speed of sound [m/s] | viscosity [mPa·s]
[3] | – | 1.3752 | – | –
[4] | 780.95 | – | 1140 | 2.054

CO [methanol]
Details | mass density [kg/m3] | refractive index | speed of sound [m/s] | viscosity [mPa·s]
[3] | – | 1.3264 | – | –
[4] | 786.63 | – | 1102 | 0.541

CCCCCCCC[n+]1ccn(C)c1.F[B-](F)(F)F [1-methyl-3-octylimidazolium tetrafluoroborate] + CCCO
Details | mass density, [2] [kg/m3] | refractive index, [1] | speed of sound, [2] [m/s] | viscosity, [2] [mPa·s]
x1 = 0.0473 | 844.63 | 1.39108 | 1232 | 2.789
x1 = 0.0982 | 883.64 | 1.3978 | 1256 | 3.942
x1 = 0.2034 | 943.18 | 1.40783 | 1306 | 7.531
x1 = 0.241 | 959.69 | 1.41061 | 1321 | 9.169
x1 = 0.2958 | 980.53 | 1.41405 | 1343 | 12.21
x1 = 0.4007 | 1012.5 | 1.41928 | 1377 | 20.65
x1 = 0.4355 | 1021.38 | 1.42071 | 1387 | 24.52
x1 = 0.4988 | 1035.79 | 1.42301 | 1403 | 33.31
x1 = 0.5506 | 1046.19 | 1.42472 | 1414 | 43.39
x1 = 0.6165 | 1057.95 | 1.42671 | 1428 | 59.9
x1 = 0.6778 | 1067.63 | 1.42832 | 1439 | 79.52
x1 = 0.7828 | 1081.97 | 1.43069 | 1457 | 130.9
x1 = 0.9118 | 1096.63 | 1.43297 | 1477 | 238.4
